Data taken from patent publication US20250313530A1, “SMALL MOLECULE INHIBITORS OF INTERLEUKIN-4 AND USES THEREOF” (Trustees of Boston University, priority 2024, published 2025).
Where “and” joins values, the source holds several entries; their conditions need not be identical. Equal entries are not always repeated. Where two headings read alike, the source gives them in different places.

Target: T1, IL-4 (Homo sapiens, UniProt P05112)
T1 construct: purchased Acros Biosystems IL4-H4218; host or cells: HEK-293
T1 sequence (P05112 25-153): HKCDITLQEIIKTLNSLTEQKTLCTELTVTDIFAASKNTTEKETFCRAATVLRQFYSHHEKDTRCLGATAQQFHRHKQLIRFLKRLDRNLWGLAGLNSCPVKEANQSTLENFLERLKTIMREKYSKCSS
Assay: HEK-Blue IL-4/IL-13 reporter assay, IL-4 inhibition
Assay type: cell-based
Conditions: for inhibition at 10 µM: HEK-Blue; for inhibition at 10 µM / % Inhibition: IL-4, HEK Blue IL-4/IL-13 reporter assay, 10 μM; for EC50: HEK Blue IL-4/IL-13 reporter assay, read-out: EC50
Procedure: HEK-Blue IL-4/IL-13 Inhibition assay. HEK-Blue IL-4/IL-13 reporter cell lines were purchased from Invivogen and cultured in DMEM with 10% Heat Inactivated Fetal Bovine Serum (FBS), 100 U/ml-100 μg/ml Pen-Strep, 10 μg/ml blasticidin, 100 μg/ml Normocin and 100 μg/ml Zeocin. Cells were tested for secreted embryonic alkaline phosphatase (SEAP) production induced by IL-4 alone prior to small molecule screening.
22.5 μl of small molecule in DMEM 4% DMSO was added to 22.5 μl of 1 ng/ml IL-4 in DMEM in a non-binding 96-well reaction plate for 30 minutes at room temperature. The reaction plate was further incubated for 30-60 min at 37° C. HEK-Blue IL-4/IL-13 reporter cell line was used between passages 11-17. […] Measurements were done in triplicate. The plate was incubated for ˜22-24 hours at 37° C./5% CO2. Quanti-Blue dye was prepared as per the manufacturer's recommendation and 160 μl was dispensed in each well of a 96-well plate (avoid edges to avoid evaporation), 40 μl of cell supernatant was added to the same plate and incubated for 3 hours at 37° C./5% CO2. Optical density was then measured at 650 nm using Molecular Devices SpectraMax M5 Microplate reader. Data was analyzed and plotted using GraphPad Prism 9.2.0.

Row | Compound | inhibition at 10 µM (read-out: % Inhibition) [%] | inhibition at 10 µM [%] | further results
1 | N#Cc1c(-c2cccnc2)cc(-c2ccc(F)cc2)[nH]c1=N [Compound 50, 6′-(4-fluorophenyl)-2′-imino-1′,2′-dihydro-[3,4′-bipyridine]-3′-carbonitrile] | – | 10 ± 17.2 | –
2 | Cc1cc(-c2ccc(O)c(O)c2)c(C#N)c(N)n1 [Compound 13, 2-amino-4-(3,4-dihydroxyphenyl)-6-methylnicotinonitrile] | 70.2 | – | –
3 | N#Cc1c(-c2ccc(O)c(O)c2)cc(C2CCC2)nc1N [3A/56, 2-amino-6-cyclobutyl-4-(3,4-dihydroxyphenyl) nicotinonitrile] | 28.5 ± 12.1 | – | –
4 | N#Cc1c(-c2ccc(O)c(O)c2)cc(-c2ccc(-c3ccccc3)cc2)[nH]c1=N [Compound 10, 6-([1,1′-biphenyl]-4-yl)-4-(3,4-dihydroxyphenyl)-2-imino-1,2-dihydropyridine-3-carbonitrile] | 4.73 ± 4.58 | – | –
5 | N#CC1C(=O)N=C(c2ccc(O)cc2)C=C1c1ccc(O)c(O)c1 (centres unmarked) [Compound 32, 4-(3,4-dihydroxyphenyl)-6-(4-hydroxyphenyl)-2-oxo-2,3-dihydropyridine-3-carbonitrile] | – | 94.1 | –
6 | N#Cc1c(-c2ccc(O)c(O)c2)cc(C2CC2)nc1N [2A/55, 2-amino-6-cyclopropyl-4-(3,4-dihydroxyphenyl) nicotinonitrile] | 2.47 ± 14.2 | – | –
7 | N#Cc1c(-c2ccc(O)c(O)c2)cc(-c2ccc3ccccc3c2)[nH]c1=N [Compound 11, 4-(3,4-dihydroxyphenyl)-2-imino-6-(naphthalen-2-yl)-1,2-dihydropyridine-3-carbonitrile] | – | 54.7 ± 8.42 | –
8 | N#CC1C(=N)N=C(c2ccc(Br)cc2)C=C1c1ccc(O)c(O)c1 (centres unmarked) [Compound 3, 6-(4-bromophenyl)-4-(3,4-dihydroxyphenyl)-2-imino-2,3-dihydropyridine-3-carbonitrile] | – | – | % Inhibition: 63.3 ± 2.54% and 93.3 ± 2.54%; EC50 (dose response, IL-4 inhibition): 1300 ± 390 nM
9 | N#Cc1c(-c2ccc(O)c(O)c2)cc(-c2ccc(O)cc2)[nH]c1=N [Compound 4, 4-(3,4-dihydroxyphenyl)-6-(4-hydroxyphenyl)-2-imino-1,2-dihydropyridine-3-carbonitrile] | – | > 80 | % Inhibition: 81.2 ± 18.9%; EC50 (dose response, IL-4 inhibition): 1140 ± 380 nM
10 | N#Cc1c(-c2ccccc2O)cc(-c2ccc(F)cc2)nc1O [Compound 39, 6-(4-fluorophenyl)-2-hydroxy-4-(2-hydroxyphenyl)nicotinonitrile] | – | 100 | EC50 (dose response, IL-4 inhibition): 1750 nM
11 | N#Cc1c(-c2ccc(Cl)c(Cl)c2)cc(-c2ccc(F)cc2)[nH]c1=O [Compound 34, 4-(3,4-dichlorophenyl)-6-(4-fluorophenyl)-2-oxo-1,2-dihydropyridine-3-carbonitrile] | – | 44.2 ± 11.1 | –
12 | Cc1ccc(-c2cc(-c3ccc(O)c(O)c3)c(C#N)c(=N)[nH]2)cc1 [Compound 5, 4-(3,4-dihydroxyphenyl)-2-imino-6-(p-tolyl)-1,2-dihydropyridine-3-carbonitrile] | – | > 80 | % Inhibition: 62.7 ± 4.30% and 82.7 ± 4.30%; EC50 (dose response, IL-4 inhibition): 1290 ± 470 nM
13 | N#Cc1c(-c2ccc(O)c(O)c2)cc(-c2cccc(F)c2)nc1N [Compound 1, 2-amino-4-(3A-dihydroxyphenyl)-6-(3-fluorophenyl)nicotinonitrile] | – | – | % Inhibition: No inhibition
14 | COc1cc(-c2cc(-c3ccc(F)cc3)[nH]c(=N)c2C#N)ccc1O [Compound 48, 6-(4-fluorophenyl)-4-(4-hydroxy-3-methoxyphenyl)-2-imino-1,2-dihydropyridine-3-carbonitrile] | – | 100 ± 0.49 | EC50 (dose response, IL-4 inhibition): 8400 nM and 6400 nM
15 | COc1ccc(-c2cc(-c3ccc(F)cc3)[nH]c(=N)c2C#N)cc1O [Compound 49, 6-(4-fluorophenyl)-4-(3-hydroxy-4-methoxyphenyl)-2-imino-1,2-dihydropyridine-3-carbonitrile] | – | 82.2 ± 7.2 | EC50 (dose response, IL-4 inhibition): 4020 ± 1850 nM
16 | COc1cc(-c2cc(-c3ccc(F)cc3)[nH]c(=O)c2C#N)ccc1O [Compound 42, 6(4-fluorophenyl)-4-(4-hydroxy-3-methoxyphenyl)-2-oxo-1,2-dihydropyridine-3-carbonitrile] | – | 67.6 ± 4.88 | –
17 | N#Cc1c(-c2ccc(O)c(C(=O)O)c2)cc(-c2ccc(N)cc2)nc1N [Compound 33, 5-(2-amino-6-(4-aminophenyl)-3-cyanopyridin-4-yl)-2-hydroxybenzoic acid] | – | 6.63 | –
18 | N#Cc1c(-c2ccc(O)c(O)c2)cc(-c2ccco2)nc1N [Compound 8, 2-amino-4-(3,4-dihydroxyphenyl)-6-(furan-2-yl)nicotinonitrile] | – | – | % Inhibition: No inhibition
19 | N#Cc1c(-c2cccc(O)c2)cc(-c2ccc(F)cc2)[nH]c1=O [Compound 40, 6-(4-fluorophenyl)-4-(3-hydroxyphenyl)-2-oxo-1,2-dihydropyridine-3-carbonitrile] | – | 64.3 ± 12.3 | –
20 | N#Cc1c(-c2ccc(O)c(O)c2)cc(-c2ccc(-n3ccnc3)cc2)nc1N [Compound 16, 6-(4-(1H-imidazol-1-yl)phenyl)-2-amino-4-(3,4-dihydroxyphenyl)nicotinonitrile] | – | – | % Inhibition: No inhibition
21 | N#Cc1c(-c2ccc(O)c(O)c2)cc(-c2ccccc2F)nc1N [Compound 2, 2-amino-4-(3A-dihydroxyphenyl)-6-(2-fluorophenyl)nicotinonitrile] | – | – | % Inhibition: 40.0 ± 5.87%
22 | N#Cc1c(-c2ccc(O)c(O)c2)cc(-c2cccnc2)[nH]c1=N [Compound 7, 4-(3,4-dihydroxyphenyl)-6-imino-1,6-dihydro-[2,3′-bipyridine]-5-carbonitrile] | 94.3 | – | % Inhibition: 84.3 ± 1.11%; EC50 (dose response, IL-4 inhibition): 2020 ± 970 nM
23 | N#CC1C(=N)N=C(c2cnccn2)C=C1c1ccc(O)c(O)c1 (centres unmarked) [Compound 9, 4-(3,4-dihydroxyphenyl)-2-imino-6-(pyrazin-2-yl)-2,3-dihydropyridine-3-carbonitrile] | 64.2 ± 13.4 | – | –
24 | N#Cc1c(-c2ccc(O)c(O)c2)cc(C2CCCCC2)nc1N [Compound 12, 2-amino-6-cyclohexyl-4-(3,4-dihydroxyphenyl)nicotinonitrile] | – | 49.4 | % Inhibition: 48.4 ± 5.80%
25 | N#Cc1c(-c2ccc(O)c(I)c2)cc(-c2ccc(F)cc2)[nH]c1=N [Compound 53, 6(4-fluorophenyl)-4-(4-hydroxy-3-iodophenyl)-2-imino-1,2-dihydropyridine-3-carbonitrile] | – | 58.9 ± 19.9 | –

Further lines, with some results ahead:

Row | inhibition at 10 µM (read-out: % Inhibition) [%] | Compound | inhibition at 10 µM [%] | further results
26 | 22.9 ± 1.48 | CN(C)c1ccc(-c2cc(-c3ccc(O)c(O)c3)c(C#N)c(N)n2)cc1 [Compound 17, 2-amino-4-(3,4-dihydroxyphenyl)-6-(4-(dimethylamino)phenyl)nicotinonitrile] | – | –
27 | 6.13 ± 9.13 | N#Cc1c(-c2ccccc2)cc(-c2ccc(F)cc2)[nH]c1=N [Compound 43, 6-(4-fluorophenyl)-2-imino-4-phenyl-1,2-dihydropyridine-3-carbonitrile] | – | –
28 | 98.8 ± 1.54 | N#Cc1c(-c2ccccc2O)cc(-c2ccc(F)cc2)nc1N [Compound 47, 2-amino-6-(4-fluorophenyl)-4-(2-hydroxyphenyl)nicotinonitrile] | – | EC50 (dose response, IL-4 inhibition): 3400 nM and 3450 nM
29 | 0.48 ± 17.1 | Cc1ccc(-c2cc(-c3ccc(F)cc3)[nH]c(=O)c2C#N)o1 [Compound 37, 6(4-fluorophenyl)-4-(5-methylfuran-2-yl)-2-oxo-1,2-dihydropyridine-3-carbonitrile] | – | –
30 | 33.9 ± 21.4 | Cc1ccc(-c2cc(-c3ccc(F)cc3)[nH]c(=N)c2C#N)o1 [Compound 44, 6-(4-fluorophenyl)-2-imino-4-(5-methylfuran-2-yl)-1,2-dihydropyridine-3-carbonitrile] | – | –
31 | 27.6 ± 25.1 | N#Cc1c(-c2ccccc2)cc(-c2ccc(F)cc2)[nH]c1=O [Compound 35, 6-(4-fluorophenyl)-2-oxo-4-phenyl-1,2-dihydropyridine-3-carbonitrile] | – | –
32 | 97.7 | Cc1c(-c2ccc(F)cc2)[nH]c(=N)c(C#N)c1-c1ccc(O)c(O)c1 [Compound 20, 4-(3,4-dihydroxyphenyl)-6-(4-fluorophenyl)-2-imino-5-methyl-1,2-dihydropyridine-3-carbonitrile] | – | potency compared with Nico-52 (in words) (dose response, IL-4 inhibition): less potency than Nico-52; EC50 (dose response, IL-4 inhibition): 2690 ± 570 nM
33 | 71.2 ± 5.6 | N#Cc1c(-c2ccc(O)c(O)c2)cc(-c2ccc(F)cc2)[nH]c1=O [Compound 19, 4-(3,4-dihydroxyphenyl)-6-(4-fluorophenyl)-2-oxo-1,2-dihydropyridine-3-carbonitrile] | – | –
34 | 37.5 ± 19.9 | Cc1ccc(-c2cc(-c3ccc(F)cc3)[nH]c(=N)c2C#N)s1 [Compound 45, 6-(4-fluorophenyl)-2-imino-4-(5-methylthiophen-2-yl)-1,2-dihydropyridine-3-carbonitrile] | – | –
35 | 88.2 ± 13.9 | Cc1ccc(N2CCCCC2)cc1 [Compound 18] | – | –
36 | 54.6 ± 11.6 | N#Cc1c(-c2ccc(O)c(C(=O)O)c2)cc(-c2ccc(F)cc2)[nH]c1=N [Compound 51, 5-(3-cyano-6-(4-fluorophenyl)-2-imino-1,2-dihydropyridin-4-yl)-2-hydroxybenzoic acid] | – | –
